# Measured values from ChEMBL document CHEMBL1143091, “Synthesis and SAR studies of biaryloxy-substituted triazoles as antifungal agents” (2008).
# Columns and labels:
# [1] = tested on: Trichophyton rubrum; assay: Antimicrobial activity against Trichophyton rubrum isolates; type: functional
# [2] = tested on: Candida tropicalis; assay: Antimicrobial activity against Candida tropicalis isolates; type: functional
# [3] = tested on: Candida parapsilosis; assay: Antimicrobial activity against Candida parapsilosis isolates; settings: Lodderomyces parapsilosis
# [4] = tested on: Aspergillus fumigatus; assay: Antimicrobial activity against Aspergillus fumigatus isolates; type: functional
# [5] = tested on: Cryptococcus neoformans; assay: Antimicrobial activity against Cryptococcus neoformans ATCC 32609; type: functional
# [6] = tested on: Fonsecaea compacta; assay: Antimicrobial activity against Fonsecaea compacta isolates; type: functional
# [7] = tested on: Nannizzia gypsea; assay: Antimicrobial activity against Microsporum gypseum isolates; type: functional
# [8] = tested on: Candida albicans; assay: Antimicrobial activity against Candida albicans ATCC 76615; type: functional
MIC [1],MIC [2],MIC [3],MIC [4],MIC [5],MIC [6],MIC [7],MIC [8],Structure (SMILES)
4 µg/mL,0.25 µg/mL,0.25 µg/mL,> 64 µg/mL,4 µg/mL,4 µg/mL,1 µg/mL,4 µg/mL,OC(COc1ccc(-c2ccc(NCc3cccc(Cl)c3)nc2)cc1)(Cn1cncn1)c1ccc(F)cc1F (stereo unspecified)
0.25 µg/mL,0.25 µg/mL,0.25 µg/mL,> 64 µg/mL,1 µg/mL,1 µg/mL,1 µg/mL,0.25 µg/mL,O=C(CCl)Nc1ccc(-c2ccc(OCC(O)(Cn3cncn3)c3ccc(F)cc3F)cc2)cn1 (stereo unspecified)
0.0625 µg/mL,0.25 µg/mL,0.25 µg/mL,> 64 µg/mL,64 µg/mL,4 µg/mL,1 µg/mL,0.25 µg/mL,CNCc1ccc(-c2ccc(OCC(O)(Cn3cncn3)c3ccc(F)cc3F)cc2)cc1 (stereo unspecified)
0.0625 µg/mL,0.0625 µg/mL,0.0625 µg/mL,> 64 µg/mL,0.25 µg/mL,1 µg/mL,0.25 µg/mL,0.0625 µg/mL,Cc1ccc(C(=O)Nc2ccc(-c3ccc(OCC(O)(Cn4cncn4)c4ccc(F)cc4F)cc3)cn2)cc1 (stereo unspecified)
0.25 µg/mL,0.0156 µg/mL,0.0625 µg/mL,> 64 µg/mL,1 µg/mL,1 µg/mL,0.25 µg/mL,0.0625 µg/mL,O=C(CN1CCCCC1)Nc1ccc(-c2ccc(OCC(O)(Cn3cncn3)c3ccc(F)cc3F)cc2)cn1 (stereo unspecified)
> 64 µg/mL,0.0156 µg/mL,0.0625 µg/mL,> 64 µg/mL,> 64 µg/mL,1 µg/mL,4 µg/mL,0.0625 µg/mL,Oc1ccc(CNc2ccc(-c3ccc(OCC(O)(Cn4cncn4)c4ccc(F)cc4F)cc3)cn2)cc1 (stereo unspecified)
0.25 µg/mL,0.25 µg/mL,0.25 µg/mL,> 64 µg/mL,16 µg/mL,1 µg/mL,1 µg/mL,1 µg/mL,CCNCc1ccc(-c2ccc(OCC(O)(Cn3cncn3)c3ccc(F)cc3F)cc2)cc1 (stereo unspecified)
0.25 µg/mL,0.0625 µg/mL,0.0625 µg/mL,> 64 µg/mL,16 µg/mL,4 µg/mL,1 µg/mL,1 µg/mL,CC(C)NCc1ccc(-c2ccc(OCC(O)(Cn3cncn3)c3ccc(F)cc3F)cc2)cc1 (stereo unspecified)
1 µg/mL,0.25 µg/mL,0.25 µg/mL,> 64 µg/mL,> 64 µg/mL,> 64 µg/mL,> 64 µg/mL,0.25 µg/mL,OC(COc1ccc(-c2ccc(CNc3cccc(Cl)c3)cc2)cc1)(Cn1cncn1)c1ccc(F)cc1F (stereo unspecified)
0.25 µg/mL,0.0625 µg/mL,0.0625 µg/mL,> 64 µg/mL,0.25 µg/mL,1 µg/mL,1 µg/mL,0.0156 µg/mL,O=C(Nc1ccc(-c2ccc(OCC(O)(Cn3cncn3)c3ccc(F)cc3F)cc2)cn1)c1ccc(CCl)cc1 (stereo unspecified)
0.0625 µg/mL,0.0625 µg/mL,0.0625 µg/mL,64 µg/mL,> 64 µg/mL,0.25 µg/mL,0.0625 µg/mL,0.0625 µg/mL,Oc1ccccc1CNc1ccc(-c2ccc(OCC(O)(Cn3cncn3)c3ccc(F)cc3F)cc2)cn1 (stereo unspecified)
1 µg/mL,0.25 µg/mL,0.25 µg/mL,4 µg/mL,16 µg/mL,1 µg/mL,1 µg/mL,0.0625 µg/mL,CNCC(=O)Nc1ccc(-c2ccc(OCC(O)(Cn3cncn3)c3ccc(F)cc3F)cc2)cn1 (stereo unspecified)
0.0156 µg/mL,0.25 µg/mL,0.25 µg/mL,4 µg/mL,64 µg/mL,0.0625 µg/mL,0.25 µg/mL,0.0625 µg/mL,Nc1ccc(-c2ccc(OCC(O)(Cn3cncn3)c3ccc(F)cc3F)cc2)cn1 (stereo unspecified)
0.25 µg/mL,0.25 µg/mL,0.0625 µg/mL,4 µg/mL,1 µg/mL,4 µg/mL,> 64 µg/mL,0.25 µg/mL,OC(COc1ccc(-c2ccc(NCc3ccccc3)nc2)cc1)(Cn1cncn1)c1ccc(F)cc1F (stereo unspecified)

Structure (SMILES),MIC [1],MIC [2],MIC [3],MIC [4],MIC [5],MIC [6],MIC [7],MIC [8]
C[C@@H](c1ncncc1F)[C@](O)(Cn1cncn1)c1ccc(F)cc1F [VORICONAZOLE],0.0156 µg/mL,0.0156 µg/mL,0.0625 µg/mL,0.25 µg/mL,1 µg/mL,0.0625 µg/mL,0.0156 µg/mL,0.25 µg/mL
C[C@@H]1[C@H](O)[C@@H](C)/C=C/C=C/C=C/C=C/C=C/C=C/C=C/[C@H](O[C@@H]2O[C@H](C)[C@@H](O)[C@H](N)[C@@H]2O)C[C@@H]2O[C@](O)(C[C@@H](O)C[C@@H](O)[C@H](O)CC[C@@H](O)C[C@@H](O)CC(=O)O[C@H]1C)C[C@H](O)[C@H]2C(=O)O [AMPHOTERICIN B],16 µg/mL,4 µg/mL,1 µg/mL,16 µg/mL,1 µg/mL,16 µg/mL,1 µg/mL,0.25 µg/mL
CC(=O)N1CCN(c2ccc(OCC3COC(Cn4ccnc4)(c4ccc(Cl)cc4Cl)O3)cc2)CC1 (stereo unspecified) [KETOCONAZOLE],0.25 µg/mL,0.0625 µg/mL,0.0625 µg/mL,1 µg/mL,0.0156 µg/mL,0.25 µg/mL,0.25 µg/mL,0.25 µg/mL
